Like-named read-outs stand apart in the source and are kept apart here.
Key:
bovine CYP21 [1] = biological target: T1, bovine CYP21 (Bos taurus, UniProt P00191); experiment: Whole cell biotransformation (21-hydroxylation) in E. coli C43(DE3); type: cell-based
T1 construct: lacking the hydrophobic anchor region, i.e. a truncation of 29 N-terminal amino acid residues; 6xHis (C); expressed in transfected cells
T1 sequence (P00191 with tags, fused parts or gaps): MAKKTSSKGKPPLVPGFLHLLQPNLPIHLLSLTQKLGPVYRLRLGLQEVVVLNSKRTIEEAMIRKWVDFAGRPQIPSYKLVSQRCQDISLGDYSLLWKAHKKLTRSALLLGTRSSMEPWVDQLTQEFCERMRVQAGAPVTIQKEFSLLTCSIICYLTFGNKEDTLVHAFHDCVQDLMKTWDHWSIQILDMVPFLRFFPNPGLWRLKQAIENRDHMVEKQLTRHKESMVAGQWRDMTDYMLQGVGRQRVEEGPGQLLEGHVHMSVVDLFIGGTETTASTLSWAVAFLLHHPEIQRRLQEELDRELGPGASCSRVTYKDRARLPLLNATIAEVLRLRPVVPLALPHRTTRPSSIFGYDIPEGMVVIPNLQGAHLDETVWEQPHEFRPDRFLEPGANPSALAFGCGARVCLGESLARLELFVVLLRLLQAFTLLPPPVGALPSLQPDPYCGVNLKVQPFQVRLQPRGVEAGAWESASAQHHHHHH

human CYP21 [2] = biological target: T2, human CYP21 (Homo sapiens, UniProt P08686); experiment: as above; type: cell-based; set-up: lacking the hydrophobic anchor region, i.e. a truncation of 29 N-terminal amino acid residues; 6xHis (C); expressed in transfected cells; host or cells: E. coli C43(DE3) transformed with pET17b-based bi-/tricistronic vectors (p21h_...) and pGro12
T2 sequence (P08686 with tags, fused parts or gaps): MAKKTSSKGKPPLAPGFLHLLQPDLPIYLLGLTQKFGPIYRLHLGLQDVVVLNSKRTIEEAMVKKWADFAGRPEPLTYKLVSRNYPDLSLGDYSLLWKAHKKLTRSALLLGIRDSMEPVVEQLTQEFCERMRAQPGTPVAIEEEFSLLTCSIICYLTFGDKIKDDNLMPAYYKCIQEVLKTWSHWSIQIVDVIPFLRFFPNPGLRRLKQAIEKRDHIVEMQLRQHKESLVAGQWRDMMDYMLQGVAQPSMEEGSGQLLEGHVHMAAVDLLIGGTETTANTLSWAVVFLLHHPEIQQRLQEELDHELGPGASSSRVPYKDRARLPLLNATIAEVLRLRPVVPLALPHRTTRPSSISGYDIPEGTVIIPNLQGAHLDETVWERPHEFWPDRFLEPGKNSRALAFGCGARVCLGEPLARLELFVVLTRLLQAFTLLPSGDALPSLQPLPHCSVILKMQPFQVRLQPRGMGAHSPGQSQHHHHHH

bovine CYP21 [3] = biological target: T1, bovine CYP21; experiment: In vitro substrate conversion with purified enzymes (reconstituted cytochrome P450 system); type: biochemical; details: defined buffer, NADPH regeneration system, electron transfer proteins of Table 2
Method: (§1) Both enzymes were expressed in the E. coli strain C43(DE3) by coexpression of the E. coli chaperones GroEL/GroES encoded in the vector pGro12. These chaperones ensure a correct protein folding which is important for an incorporation of the heme prosthetic group. In FIG. 3 an SDS-PAGE and a CO difference spectrum of purified bovine CYP21 are shown. […] To determine the binding of medrane to both isozymes the binding constants (KD-values) were determined.
(§2) For an efficient substrate conversion, both isoforms require an electron transfer system which consists of two parts, the cytochrome P450 enzyme itself and one or two electron transfer proteins which are essential for a hydroxylation reaction. Without these transfer proteins, no reaction will take place.
(§3) For in vitro studies and a verification of a substrate conversion, all redox partners were purified.

human CYP21 [4] = biological target: T2, human CYP21; experiment: as above; type: biochemical; set-up: lacking the hydrophobic anchor region, i.e. a truncation of 29 N-terminal amino acid residues; 6xHis (C); made in house; host or cells: E. coli C43(DE3), co-expressing GroEL/GroES from pGro12; details: defined buffer, NADPH regeneration system, electron transfer proteins of Table 2
Method: as §1, §2, §3

[5] = bovine CYP21 with redox partners, GroEL/GroES co-expressed
[6] = human CYP21 with redox partners, GroEL/GroES co-expressed

Row | Molecule | hydroxylation at position 21 (steroid conversion) (bovine CYP21 [1]; [5]) | hydroxylation at position 21 (steroid conversion) (human CYP21 [2]; [6]) | in vitro conversion of medrane to premedrol (bovine CYP21 [3]) | in vitro conversion of medrane to premedrol (human CYP21 [4]) | hydroxylation at position 21 (steroid conversion) (bovine CYP21 [1]) | hydroxylation at position 21 (steroid conversion) (human CYP21 [2])
1 | CC(=O)[C@H]1CC[C@H]2[C@@H]3CCC4=CC(=O)CC[C@]4(C)[C@H]3CC[C@]12C [Progesterone, progesterone] | able to hydroxylate | able to hydroxylate | – | – | – | –
2 | CC(=O)[C@@]1(O)CCC2C3C[C@H](C)C4=CC(=O)CC[C@]4(C)C3[C@@H](O)C[C@@]21C (stereo partly drawn) [Medrane, medrane] | able to hydroxylate | able to hydroxylate | very efficiently | very efficiently | – | –
3 | medroxyprogesterone | – | – | – | – | able to hydroxylate | able to hydroxylate
4 | CC(=O)[C@@]1(O)CC[C@H]2[C@@H]3C[C@H](C)C4=CC(=O)C=C[C@]4(C)[C@H]3[C@@H](O)C[C@@]21C [Deltamedrane, deltamedrane] | able to hydroxylate | able to hydroxylate | – | – | – | –
5 | CC(=O)[C@H]1CC[C@H]2[C@@H]3CC[C@H]4CC(=O)CC[C@]4(C)[C@H]3CC[C@]12C [5α-dihydroprogesterone] | – | – | – | – | able to hydroxylate | able to hydroxylate
